The values below come from ChEMBL document CHEMBL1201862, “PubChem BioAssay data set” (2004).

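Cultured in 96-well plates, cells were exposed to test compound for 48 hours across five concentrations. Here, GI50 denotes the concentration required for 50% inhibition of growth.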 Active and inactive are the calls of the source. Cut-off read from the data, not from the text of the source: active = GI50 up to about 1.1 µM and inactive = higher.

Some test systems named below: ACHN; M14; RPMI-8226; UO-31; TK-10; NCI-H522; 786-0; UACC-62; IGROV-1; LOX IMVI; NCI/ADR-RES; CAKI-1; A549; HOP-62; SN12C; HL-60; UACC-257; Malme-3M; NCI-H23; K562.
Common to all, as to experiment: inhibition of tumour cell growth, NCI panel, 48 h

With `Cc1nc2ccc(NCCN(C)C)c3c(=O)c4ccccc4n1c23`, the GI50 was 1.52 µM (inactive) in the assay with ACHN; 4.03 µM (inactive) in the assay on M14; 2.04 µM (inactive) in the assay on RPMI-8226; 2.13 µM (inactive) in the assay with UO-31; 4.08 µM (inactive) with TK-10; 1.52 µM (inactive) in the assay with NCI-H522. Also, the GI50 in the assay with 786-0 was 1.68 µM (inactive); with UACC-62, 5.02 µM (inactive); in the assay on IGROV-1, 1.75 µM (inactive); in the assay on LOX IMVI, 0.9 µM (active); in the assay on NCI/ADR-RES, 1.06 µM (active); in the assay with CAKI-1 it was 2.76 µM (inactive). In addition, the GI50 in the assay on A549 is 1.16 µM (inactive); in the assay on HOP-62, 1.51 µM (inactive); in the assay with SN12C, 2.31 µM (inactive); with HL-60, 3.37 µM (inactive); in the assay on UACC-257, 4.65 µM (inactive); with Malme-3M, 4.14 µM (inactive). In addition, the values for the GI50 with NCI-H23 and in the assay on K562 were 2.97 µM (inactive) and 1.39 µM (inactive), respectively.

On to `CN1CN(c2ccccc2)C2(CCN(CCCCCCF)CC2)C1=O`, for which the GI50 in the assay on ACHN is 31.6 µM (inactive); in the assay on M14, 73.5 µM (inactive); in the assay on RPMI-8226, > 100 µM (inactive); in the assay with UO-31 it was 26.7 µM (inactive); in the assay with TK-10, 65.8 µM (inactive); with NCI-H522, > 100 µM (inactive). The GI50 was > 100 µM (inactive) in the assay with 786-0; 90.2 µM (inactive) in the assay on UACC-62; 40.3 µM (inactive) in the assay with IGROV-1; > 100 µM (inactive) with LOX IMVI; 16.4 µM (inactive) in the assay with NCI/ADR-RES; 41.9 µM (inactive) in the assay on CAKI-1. Besides, the GI50 in the assay on A549 is 57.7 µM (inactive); in the assay on HOP-62, 31.1 µM (inactive); with SN12C, 68.9 µM (inactive); in the assay on HL-60, > 100 µM (inactive); with UACC-257, 35.2 µM (inactive); with Malme-3M, > 100 µM (inactive). For the same molecule, the GI50 is 94 µM (inactive) in the assay with NCI-H23 and > 100 µM (inactive) with K562.

Turning to `CCC1(c2ccc(N)cc2)CCC(=O)NC1=O` (stereo not given) [AMINOGLUTETHIMIDE], the GI50 was 2490 µM (inactive) with ACHN; 2290 µM (inactive) in the assay on M14; 2490 µM (inactive) with RPMI-8226; 1930 µM (inactive) in the assay with UO-31; 2170 µM (inactive) in the assay on TK-10; 2640 µM (inactive) in the assay on NCI-H522. The GI50 with 786-0 is 3420 µM (inactive); with UACC-62, 1820 µM (inactive); in the assay on IGROV-1, 3450 µM (inactive); with LOX IMVI, 2770 µM (inactive); in the assay on NCI/ADR-RES, 1680 µM (inactive); in the assay with CAKI-1, 1460 µM (inactive). The GI50 in the assay on A549 was 2880 µM (inactive); in the assay on HOP-62 it was 1050 µM (inactive); with SN12C, 3400 µM (inactive); in the assay on HL-60 it was 1280 µM (inactive); with UACC-257 it was 2650 µM (inactive); in the assay on Malme-3M, 2960 µM (inactive). Further, the GI50 with NCI-H23 is 3240 µM (inactive); with K562, 2080 µM (inactive).
